Laboratory results: patent publication US20250179143A1, “SYSTEMS AND METHODS FOR CHAPERONE-MEDIATED LIGAND EXCHANGE ON MHC-I AND MHC-RELATED MOLECULES USING CHICKEN TAPBPR” (priority 2022, published 2025)
Values belong to the substance of their own block, whether it stands above or below them. Non-standard residues stand in square brackets, D forms with d. No end group written: not given here.

Key:
[1] = DSF thermal stability of pMHC-I molecules; assay type: physicochemical
[2] = target: HLA-A*02:01 (Homo sapiens, UniProt P04439, D140Y/D185E/D98H/E176V/E277Q/G131W/G231S/I119V/I121R/I166T/I218V/L300P/L318F/N151K/N90K/P208A/P217A/Q86G/Q94H/R138H/R169H/T345S); assay: Fluorescence polarization (FP) peptide exchange
[3] = target: chTAPBPR/HLA-B*08:01 complex (Homo sapiens, UniProt P01889, A93T/A95T/D138N/E176V/E187T/K202T/Q94N/R180D/S35A/V36M/Y33D/Y91F); assay: EMSA of peptide-receptive complex with peptides; conditions: 10-fold molar excess peptide
[4] = HLA-A*02:01 refolded with the named peptide
[5] = absence or presence of 10 nM hTAPBPR

Substance: KILGFVF(BF)V [BetaA02]
Tm [1, 4]: 53 °C | exchange of βF placeholder peptide on HLA-A*02:01 for fluorescent peptide ([2]; 5000 nM hTAPBPR): complete fluorescent peptide exchange

Substance: KILGFβFFTV [βF-P6]
Tm [1, 4]: 61 °C | exchange of βF placeholder peptide on HLA-A*02:01 for fluorescent peptide ([2]; 5000 nM hTAPBPR): allowed peptide loading | exchange of βF placeholder peptide on HLA-A*02:01 for fluorescent peptide [2, 5]: no peptide exchange

Substance: KILGFVβFTV [βF-P7]
Tm [1, 4]: 63 °C | exchange of βF placeholder peptide on HLA-A*02:01 for fluorescent peptide ([2]; 5000 nM hTAPBPR): allowed peptide loading | exchange of βF placeholder peptide on HLA-A*02:01 for fluorescent peptide [2, 5]: no peptide exchange

Substance: MLYQHLLPL [T1D95]
pMHC-I bands upon incubation of the complex with the peptide [3]: discrete pMHC-I bands

Substance: KILGFVFJV (photolabile J residue; VARIANT 8 J=3-amino-3-(2-nitrophenyl)-propionic acid) [PhotoA02, reference compound]
Tm [1, 4]: 52 °C

Substance: FLRGRAYGL [EBV]
pMHC-I bands upon incubation of the complex with the peptide [3]: discrete pMHC-I bands

Substance: ILDTAGQEEY [RAS, reference compound]
Tm ([1]; HLA-A*01:01 refolded with the named peptide): 52 °C

Substance: AIFQSSMTK [HIV]
pMHC-I bands upon incubation of the complex with the peptide [3]: not

Substance: KILβFFVFTV [βF-P4]
exchange of βF placeholder peptide on HLA-A*02:01 for fluorescent peptide ([2]; 5000 nM hTAPBPR): complete fluorescent peptide exchange

Substance: KILGβFVFTV [βF-P5]
Tm [1, 4]: 62 °C | exchange of βF placeholder peptide on HLA-A*02:01 for fluorescent peptide ([2]; 5000 nM hTAPBPR): allowed peptide loading

Substance: A*02:01/βFILGFVFTV: HLA-A*02:01 loaded with βFILGFVFTV (SEQ ID NO: 66) ([βPhe]ILGFVFTV-OH; not fully specified; printed as βFILGFVFTV; also: loaded in HLA-A*02:01 complex)
Tm (° C.) ([1]; HLA-A*02 subtypes loaded with KILGFVFβFV and HLA-A*02:01 loaded with βF scanning peptides): 53.9 °C

pMHC-I bands upon incubation of the complex with the peptide [3]: discrete pMHC-I bands
Substance: ALWMRLLPL [T1D30]

Substance: KIβFGFVFTV [βF-P3]
Tm [1, 4]: 58 °C | exchange of βF placeholder peptide on HLA-A*02:01 for fluorescent peptide ([2]; 5000 nM hTAPBPR): complete fluorescent peptide exchange

Substance: βFILGFVFTV [βF-P1]
exchange of βF placeholder peptide on HLA-A*02:01 for fluorescent peptide ([2]; 5000 nM hTAPBPR): complete fluorescent peptide exchange
